Test results reported in US9309222B2, “Phenyl linked quinolinyl modulators of RORγt” (Janssen Pharmaceutica NV, priority 2012, dated 2016).
Structures can show the parent of a compound that is named as a salt.

Assays:
human RORγt LBD = biological target: T1, human RORγt LBD (Homo sapiens, UniProt P51449); test: RORγt reporter assay (GAL4-RORγt LBD luciferase in HEK293T cells); assay type: cell-based; conditions: for inhibition at 6 µM: HEK-293T, read-out: RORγt reporter Assay, % inhibition @ 6 μM, HEK293T cells, 6 μM compound; for IC50 / RORγt reporter Assay, % inhibition @ 6 μM: HEK293T cells; for IC50: 24 hours compound treatment; for RORγt reporter Assay, % inhibition @ 6 μM: 6 μM compound
T1 construct: expressed in transfected cells
T1 sequence (P51449 258-518): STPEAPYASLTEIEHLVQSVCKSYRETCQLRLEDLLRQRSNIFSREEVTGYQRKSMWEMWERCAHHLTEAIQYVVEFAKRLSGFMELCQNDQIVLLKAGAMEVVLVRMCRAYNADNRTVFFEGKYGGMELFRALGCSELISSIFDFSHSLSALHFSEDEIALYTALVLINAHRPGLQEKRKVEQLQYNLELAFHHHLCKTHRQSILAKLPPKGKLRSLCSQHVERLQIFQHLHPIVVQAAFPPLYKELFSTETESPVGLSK
From the text: A reporter assay was used to test functional activity of RORγt modulatory compounds on transcriptional activation driven by the RORγt LBD. Cells used in the assay were co-transfected with two constructs. The first construct, pBIND-RORγt LBD, contained the wild type human RORγt LBD fused to the DNA binding domain of the GAL4 protein. The second construct, pGL4.31 (Promega Cat no. C935A), contained multiple GAL4 responsive DNA elements upstream of firefly luciferase. […] The mutant construct was called pBIND-RORγt-AF2.
The pBIND vector contains the GAL4 DNA Binding Domain (GAL4 DBD) and the renilla luciferase gene under control of the SV40 promoter. Renilla luciferase expression serves as a control for transfection efficiency and cell viability.
The reporter assay was performed by transiently transfecting HEK293T cells with 5 ng of pBIND-RORγt LBD or pBIND-RORγt LBD-AF2 and 5 μg pGL4.31 (Promega Cat no. C935A) using Fugene 6 (Invitrogen Cat no. E2691) at a 1:6 ratio of DNA:Fugene 6 in a T-75 flask in which cells were at least 80% confluent. Twenty four hours after bulk transfection, cells were plated into 96-well plates at 50,000 cells/well in phenol-red free DMEM containing 5% Lipid Reduced FCS and Pen/Strep. Six hours after plating, cells were treated with compounds for 24 hours. Media was removed and cells were lysed with 50 μL 1× Glo Lysis Buffer (Promega). Dual Glo Luciferase Reagent (50 μL/well) was then added and firefly luciferase luminescence was read on an Envision after a ten minute incubation. Finally, Stop and Glo reagent (50 μL/well) was added and renilla luciferase luminescence was read on an Envision after a ten minute incubation. To calculate the effect of compounds on RORγt activity, the ratio of firefly to renilla luciferase was determined and plotted against compound concentration. Agonist compounds increase RORγt-driven luciferase expression, and antagonist or inverse agonist compounds decrease luciferase expression.

[1] = biological target: T2, human RORγt ligand binding domain (RORγt LBD) (Homo sapiens, UniProt P51449); test: RORγt ThermoFluor assay (thermal shift, ligand binding affinity); conditions: estimated from concentration response of thermal shift
T2 construct: His-tag (N); TurboTEV protease cleavage site (ENLYFQG) (N); made in house; host or cells: E. coli (pHIS1, modified pET vector)
T2 sequence (P51449 with tags, fused parts or gaps): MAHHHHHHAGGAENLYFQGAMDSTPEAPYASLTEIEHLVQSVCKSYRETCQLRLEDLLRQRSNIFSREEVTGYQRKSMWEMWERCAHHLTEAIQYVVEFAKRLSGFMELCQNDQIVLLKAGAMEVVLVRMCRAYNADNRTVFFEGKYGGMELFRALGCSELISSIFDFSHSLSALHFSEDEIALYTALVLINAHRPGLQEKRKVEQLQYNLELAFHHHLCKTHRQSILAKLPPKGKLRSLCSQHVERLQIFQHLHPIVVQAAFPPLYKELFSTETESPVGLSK
Method: This approach is applicable to a wide variety of systems, and rigorous in theoretical interpretation through quantitation of equilibrium binding constants (KD).
The shift in the melting point described as a ΔTm is proportional to the concentration and affinity of the ligand.
RORγt ThermoFluor® Assay Construct
Protein and compound solutions are dispensed into black 384-well polypropylene PCR microplates (Abgene) and overlayed with silicone oil (1 μL Fluka, type DC 200) to prevent evaporation.
Fluorescence was measured by continuous illumination with UV light (Hamamatsu LC6) supplied via fiber optic and filtered through a band-pass filter (380-400 nm; >6 OD cutoff). Fluorescence emission of the entire 384-well plate was detected by measuring light intensity using a CCD camera (Sensys, Roper Scientific) filtered to detect 500±25 nm, resulting in simultaneous and independent readings of all 384 wells. Images were collected at each temperature, and the sum of the pixel intensity in a given area of the assay plate was recorded versus temperature. Reference wells contained RORγt without compounds, and the assay conditions were as follows: • 0.065 mg/mL RORγt • 60 μM 1,8-ANS • 100 mM Hepes, pH 7.0 • 10 mM NaCl • 2.5 mM GSH • 0.002% Tween-20
Project compounds were arranged in a pre-dosed mother plate (Greiner Bio-one) wherein compounds are serially diluted in 100% DMSO by 1:2 from a high concentration of 10 mM over 12 columns within a series (column 12 is a reference well containing DMSO, no compound).
The compounds were robotically dispensed directly into assay plates (1×=[…]) using a Hummingbird capillary liquid handling instrument (Digilab). Following compound dispense, protein and dye in buffer was added to achieve the final assay volume of 3 μL, followed by 1 μL of silicone oil.

With `Cn1cncc1C(O)(c1ccc(C(F)(F)F)nc1)c1ccc2nc(C(F)(F)F)c(-c3ccccc3)c(C#N)c2c1` (racemic) [Example 173a, 6-(Hydroxy(1-methyl-1H-imidazol-5-yl)(6-(trifluoromethyl)pyridin-3-yl)methyl)-3-phenyl-2-(trifluoromethyl)quinoline-4-carbonitrile•TFA] the inhibition at 6 µM (human RORγt LBD) was 103%.
Work on `CC(=O)N1CCC(C(O)(c2ccc3nc(C(F)(F)F)c(-c4ccccc4)c(C(F)(F)F)c3c2)c2cncn2C)CC1` (racemic) [Example 181a, 1-(4-(Hydroxy(1-methyl-1H-imidazol-5-yl)(3-phenyl-2,4-bis(trifluoromethyl)quinolin-6-yl)methyl)piperidin-1-yl)ethanone] yielded a Kd [1] of 16 nM, an IC50 (human RORγt LBD) of 140 nM and an inhibition at 6 µM (human RORγt LBD) of 101%.
Work on `COc1nc2c(C)cc(C(O)(c3ccc(C(F)(F)F)nc3)c3cncn3C)cc2c(Cl)c1-c1ccc(OC(F)(F)F)cc1` (racemic) [Example 183a, (4-Chloro-2-methoxy-8-methyl-3-(4-(trifluoromethoxy)phenyl)quinolin-6-yl)(1-methyl-1H-imidazol-5-yl)(6-(trifluoromethyl)pyridin-3-yl)methanol•TFA] yielded a Kd [1] of 9.3 nM and an IC50 (human RORγt LBD) of over 6000 nM.
Molecule `Cn1cncc1C(O)(c1ccc2nc(C(F)(F)F)c(-c3ccccc3)c(C(F)(F)F)c2c1)c1ccccn1` (racemic) [Example 185a, (1-Methyl-1H-imidazol-5-yl)(3-phenyl-2,4-bis(trifluoromethyl)quinolin-6-yl)(pyridin-2-yl)methanol] has a Kd [1] of 74 nM, an IC50 (human RORγt LBD) of 200 nM and an inhibition at 6 µM (human RORγt LBD) of 100%.
`Cn1cncc1C(O)(c1ccc(Cl)cc1)c1ccc2nc(Cl)c(-c3ccccc3Cl)c(Cl)c2c1` (single isomer, unassigned) [Example 153d, (4-Chlorophenyl)(2,4-dichloro-3-(2-chlorophenyl)quinolin-6-yl)(1-methyl-1H-imidazol-5-yl)methanol] was tested, and the Kd [1] was 3500 nM, the “RORγt reporter Assay, % inhibition @ 6 μM” value (human RORγt LBD) was 75% and the IC50 (human RORγt LBD) was 1500 nM.
Molecule `Cn1cncc1C(O)(c1ccc(C(F)(F)F)nc1)c1ccc2nc(C(F)(F)F)c(-c3ccccc3)c(C#N)c2c1` (single isomer, unassigned) [Example 173b, 6-(Hydroxy(1-methyl-1H-imidazol-5-yl)(6-(trifluoromethyl)pyridin-3-yl)methyl)-3-phenyl-2-(trifluoromethyl)quinoline-4-carbonitrile] has an inhibition at 6 µM (human RORγt LBD) of 100%.
`Cc1cc(C(O)(c2ccc(F)cc2)c2cncn2C)cc2c(C#N)c(-c3cccc(F)c3)c(C#N)nc12` (single isomer, unassigned) [Example 175b, 3-(3-Fluorophenyl)-6-((4-fluorophenyl)(hydroxy)(1-methyl-1H-imidazol-5-yl)methyl)-8-methylquinoline-2,4-dicarbonitrile] showed a Kd [1] of 8200 nM, an IC50 (human RORγt LBD) of 2100 nM and an inhibition at 6 µM (human RORγt LBD) of 76%.
`Cc1cc(C(O)(c2ccc(C(F)(F)F)nc2)c2cncn2C)cc2c(C#N)c(-c3cccc(F)c3)c(C#N)nc12` (single isomer, unassigned) [Example 176b, 3-(3-Fluorophenyl)-6-(hydroxy(1-methyl-1H-imidazol-5-yl)(6-(trifluoromethyl)pyridin-3-yl)methyl)-8-methylquinoline-2,4-dicarbonitrile] was tested, and the Kd [1] was 3400 nM, the IC50 (human RORγt LBD) was 1500 nM and the inhibition at 6 µM (human RORγt LBD) was 94%.
With `COc1nc2c(C)cc(C(O)(c3ccc(F)cc3)c3cncn3C)cc2c(Cl)c1-c1cccc(F)c1` (single isomer, unassigned) [Example 178b, (4-Chloro-3-(3-fluorophenyl)-2-methoxy-8-methylquinolin-6-yl)(4-fluorophenyl)(1-methyl-1H-imidazol-5-yl)methanol] the Kd [1] was 21000 nM, the “RORγt reporter Assay, % inhibition @ 6 μM” value (human RORγt LBD) was 72% and the IC50 (human RORγt LBD) was 610 nM.
In the case of `COc1nc2c(C)cc(C(O)(c3ccc(C(F)(F)F)nc3)c3cncn3C)cc2c(C#N)c1-c1cccc(F)c1` (single isomer, unassigned) [Example 179b, 3-(3-Fluorophenyl)-6-(hydroxy(1-methyl-1H-imidazol-5-yl)(6-(trifluoromethyl)pyridin-3-yl)methyl)-2-methoxy-8-methylquinoline-4-carbonitrile], the Kd [1] is reported as 6600 nM, the IC50 (human RORγt LBD) is reported as 1300 nM and the inhibition at 6 µM (human RORγt LBD) is reported as 98%.
With `Cc1cc(C(O)(c2ccc(C(F)(F)F)nc2)c2cncn2C)cc2c(C#N)c(-c3ccc(F)cc3)c(C#N)nc12` (single isomer, unassigned) [Example 184b, 3-(4-Fluorophenyl)-6-(hydroxy(1-methyl-1H-imidazol-5-yl)(6-(trifluoromethyl)pyridin-3-yl)methyl)-8-methylquinoline-2,4-dicarbonitrile] the Kd [1] was 2500 nM, the IC50 (human RORγt LBD) was 3000 nM and the inhibition at 6 µM (human RORγt LBD) was 99%.
`Cn1cncc1C(O)(c1ccc2nc(C(F)(F)F)c(-c3ccccc3)c(C(F)(F)F)c2c1)c1ccccn1` (single isomer, unassigned) [Example 185c, (1-Methyl-1H-imidazol-5-yl)(3-phenyl-2,4-bis(trifluoromethyl)quinolin-6-yl)(pyridin-2-yl)methanol] was tested, and the Kd [1] was 760 nM, the “RORγt reporter Assay, % inhibition @ 6 μM” value (human RORγt LBD) was 91% and the IC50 (human RORγt LBD) was 810 nM.
`Cc1nn(C)c(C)c1C(O)(c1ccccc1)c1ccc2nc(Cl)c(-c3ccccc3)c(Cl)c2c1` (centres unmarked) [Example 4, (2,4-Dichloro-3-phenylquinolin-6-yl)(phenyl)(1,3,5-trimethyl-1H-pyrazol-4-yl)methanol] showed a Kd [1] of 3300 nM, an IC50 (human RORγt LBD) of 3200 nM and an inhibition at 6 µM (human RORγt LBD) of 97%.
`CC(C)(C)OC(=O)N1CCCC(C(O)(c2cccnc2)c2ccc3nc(Cl)c(-c4ccccc4)c(Cl)c3c2)C1` (centres unmarked) [Example 5, tert-Butyl 3-((2,4-Dichloro-3-phenylquinolin-6-yl)(hydroxy)(pyridin-3-yl)methyl)piperidine-1-carboxylate] showed a Kd [1] of 21000 nM, an IC50 (human RORγt LBD) of 380 nM and an inhibition at 6 µM (human RORγt LBD) of 79%.
`Cc1nn(C)c(C)c1C(O)(c1ccccc1)c1ccc2nc(Cl)c(-c3ccccc3Cl)c(Cl)c2c1` (centres unmarked) [Example 7, (2,4-Dichloro-3-(2-chlorophenyl)quinolin-6-yl)(phenyl)(1,3,5-trimethyl-1H-pyrazol-4-yl)methanol] showed a Kd [1] of 5300 nM, an IC50 (human RORγt LBD) of 1200 nM and an inhibition at 6 µM (human RORγt LBD) of 83%.
`COc1nc2ccc(C(O)(c3ccc(Cl)cc3)c3cncn3C)cc2cc1-c1ccccc1` (centres unmarked) [Example 9] was tested, and the Kd [1] was 7100 nM, the IC50 (human RORγt LBD) was 6100 nM and the inhibition at 6 µM (human RORγt LBD) was 70%.
Work on `Cc1ccc(C(O)(c2cc[nH]c2)c2cc(C)c3nc(Cl)c(-c4ccccc4)c(Cl)c3c2)cn1` (centres unmarked) [Example 157, (2,4-Dichloro-8-methyl-3-phenylquinolin-6-yl)(6-methylpyridin-3-yl)(1H-pyrrol-3-yl)methanol•TFA] yielded a Kd [1] of 2800 nM.
